According to ChEMBL document CHEMBL3045203, “Synthesis and biological evaluation of some N4-substituted 5-nitroisatin-3-thiosemicarbazones” (Med Chem Res, 2012):
The source made the active and inactive calls. The rule behind the calls is not given here.

What was measured:
Homo sapiens [1] = organism: Homo sapiens; assay: Inhibition of […] urease using urea as substrate at 0.01 uM preincubated for 5 min before substrate addition measured after 10 min relative to control
Homo sapiens [2] = organism: Homo sapiens; assay: Inhibition of […] urease using urea as substrate at 100 uM preincubated for 5 min before substrate addition measured after 10 min relative to control
Microsporum canis = assay: Antifungal activity against Arthroderma otae at 200 ug/ml after 7 days; format: functional; conditions: 168 h
Lemna aequinoctialis [3] = assay: Phytotoxicity against Lemna aequinoctialis assessed as growth inhibition at 10 ug/ml; format: functional; conditions: read-out: GI
Candida albicans = assay: Antifungal activity against Candida albicans at 200 ug/ml after 7 days; format: functional; conditions: 168 h
Homo sapiens [4] = organism: Homo sapiens; assay: Inhibition of […] urease using urea as substrate at 0.1 uM preincubated for 5 min before substrate addition measured after 10 min relative to control
Fusarium solani = assay: Antifungal activity against Fusarium solani at 200 ug/ml after 7 days; format: functional; conditions: 168 h
Lemna aequinoctialis [5] = assay: Phytotoxicity against Lemna aequinoctialis assessed as growth inhibition at 100 ug/ml; format: functional; conditions: read-out: GI
Aspergillus flavus = assay: Antifungal activity against Aspergillus flavus at 200 ug/ml after 7 days; format: functional; conditions: 168 h
[6] = Toxicity inArtemia salina (brine shrimp) larvae assessed as mortality after 24 hr; format: organism-based; conditions: artemia salina, in vivo; read-out: LD50
Homo sapiens [7] = organism: Homo sapiens; assay: Inhibition of […] urease using urea as substrate at 1 uM preincubated for 5 min before substrate addition measured after 10 min relative to control
Nakaseomyces glabratus = assay: Antifungal activity against Candida glabrata at 200 ug/ml after 7 days; format: functional; conditions: 168 h
Homo sapiens [8] = organism: Homo sapiens; assay: Inhibition of […] urease using urea as substrate at 10 uM preincubated for 5 min before substrate addition measured after 10 min relative to control
Lemna aequinoctialis [9] = assay: Phytotoxicity against Lemna aequinoctialis assessed as growth inhibition at 1000 ug/ml; format: functional; conditions: read-out: GI
[10] = Inhibition of […] urease using urea as substrate preincubated for 5 min before substrate addition measured after 10 min
Lemna aequinoctialis [11] = assay: Phytotoxicity against Lemna aequinoctialis assessed as growth inhibition at 0.015 ug/ml; format: functional; conditions: read-out: GI

Structure (SMILES) | inhibition (Homo sapiens [1]) [%] | inhibition (Homo sapiens [2]) [%] | inhibition at 200 µg/mL (Microsporum canis) [%] | inhibition of growth at 10 µg/mL (Lemna aequinoctialis [3]) [%] | inhibition at 200 µg/mL (Candida albicans) [%] | inhibition (Homo sapiens [4]) | inhibition at 200 µg/mL (Fusarium solani) [%] | inhibition of growth at 100 µg/mL (Lemna aequinoctialis [5]) [%] | inhibition at 200 µg/mL (Aspergillus flavus) [%] | LC50 at 24 h [6] [µM] | inhibition (Homo sapiens [7]) [%] | inhibition at 200 µg/mL (Nakaseomyces glabratus) [%] | inhibition (Homo sapiens [8]) [%] | inhibition of growth at 1000 µg/mL (Lemna aequinoctialis [9]) [%] | IC50 [10] [µM] | inhibition of growth at 0.015 µg/mL (Lemna aequinoctialis [11]) [%]
C=CCNC(=S)N/N=C1\C(=O)Nc2ccc([N+](=O)[O-])cc21 | 21.6 | 15.9 | 20 | 25 | 0 | 15% | 0 | 35 | 0 | > 1630 | 12 | 0 | 8 | 50 | – | –
O=C1Nc2ccc([N+](=O)[O-])cc2/C1=N/NC(=S)Nc1ccc(I)cc1 | 57 | 50 | 0 | 5 | 0 | 51% | 0 | 10 | 0 | > 1070 | 52 | 0 | 47 | 25 | 0.901 | –
COc1ccc(NC(=S)N/N=C2\C(=O)Nc3ccc([N+](=O)[O-])cc32)cc1 | 47.6 | 46.6 | 0 | 10 | 0 | 44% | 0 | 15 | 20 | > 1340 | 33.6 | 0 | 38.6 | 25 | – | –
N#Cc1cccc(NC(=S)N/N=C2\C(=O)Nc3ccc([N+](=O)[O-])cc32)c1 | 20.7 | 8.9 | 20 | 5 | 0 | 16% | 15 | 15 | 20 | 1160 | 1.8 | 0 | 12.6 | 25 | – | –
O=C1Nc2ccc([N+](=O)[O-])cc2/C1=N/NC(=S)Nc1ccc(Br)cc1 | 18.9 | 4 | 0 | 10 | 0 | 4.5% | 0 | 15 | 20 | > 1190 | 6.6 | 0 | 8 | 20 | – | –
Cc1ccc(NC(=S)N/N=C2\C(=O)Nc3ccc([N+](=O)[O-])cc32)cc1 | 8 | 7 | 40 | 15 | 0 | inactive | 30 | 20 | 30 | > 1400 | 4 | 0 | 4 | 30 | – | –
C[n+]1ccc(-c2cc[n+](C)cc2)cc1 [PARAQUAT] | – | – | – | – | – | – | – | – | – | – | – | – | – | – | – | 100
O=C1Nc2ccc([N+](=O)[O-])cc2/C1=N/NC(=S)Nc1ccccc1C(F)(F)F | 21.6 | 21 | 20 | 10 | 0 | 23% | 0 | 15 | 0 | > 1220 | 30.9 | 0 | 20.9 | 25 | – | –
